Test results taken from patent US20090287072A1, “POLYMER COMPOSITIONS, COATINGS AND DEVICES, AND METHODS OF MAKING AND USING THE SAME” (THE REGENTS OF THE UNIVERSITY OF MICHIGAN, priority 2005, published 2009).

How the values were obtained:
[1] = Catalytic NO generation by ditelluride compounds via chemiluminescence NO analyzer (NOA); format: biochemical
Method: FIG. 19A also depicts other measurements of catalytic NO generation by ditelluride compounds. […] The rate of NO generation slowly decreases with time to reach a steady-state that lasts until all of the GSNO is consumed.

[2] = NO generation by diorgano ditelluride from GSNO and GSH monitored by NOA; format: biochemical; settings: GSNO and GSH in PBS pH 7.4, EDTA, ambient temperature; FIG. 13

For `O=C(O)c1ccc([Te][Te]c2ccc(C(=O)O)s2)s1` [DTDTCA 2, 5,5′-ditelluro-2,2′-dithiophenecarboxylic acid], the “NO signal upon adding catalytic amounts” value ([1]; 2.5 μM catalyst, GSNO 25 μM, GSH 100 μM in PBS buffer, FIG. 19A) was “relatively large signal appears quickly” and the “RSNO decomposition to NO without RSH” value ([1]; absence of RSH, FIG. 19B) was “decomposes RSNO to NO even in the absence of RSH”.
In the case of `O=C(O)CCCCC[Te][Te]CCCCCC(=O)O` [compound 2], the “NO generated relative to amount of catalyst used” value [2] is reported as “much more NO than the amount of diorgano ditelluride”.
